Experimental data: publication PMC3914206

Columns and labels:
panel of 442 kinases [1] = biological target: T1, panel of 442 kinases (Homo sapiens, UniProt Q8IU85); type: binding; set-up: KINOMEscan: ABL1(F317L)-phosphorylated / KINOMEscan: ABL1(H396P)-nonphosphorylated / KINOMEscan: ABL1(H396P)-phosphorylated / KINOMEscan: ABL1(M351T)-phosphorylated / KINOMEscan: ABL1(T315I)-phosphorylated / KINOMEscan: ABL1-nonphosphorylated / KINOMEscan: ABL1-phosphorylated / KINOMEscan: ACVR2A / KINOMEscan: ACVR2B / KINOMEscan: ADCK3 / KINOMEscan: ADCK4 / KINOMEscan: AKT1 / KINOMEscan: AKT3 / KINOMEscan: ALK / KINOMEscan: ARK5 / KINOMEscan: AURKA / KINOMEscan: AURKC / KINOMEscan: BIKE / KINOMEscan: BMPR1A / KINOMEscan: BMPR1B / KINOMEscan: BMX / KINOMEscan: BRK / KINOMEscan: BRSK1 / KINOMEscan: BRSK2 / KINOMEscan: CAMK1 / KINOMEscan: CAMK1D / KINOMEscan: CAMK1G / KINOMEscan: CAMK2A / KINOMEscan: CAMK2B / KINOMEscan: AAK1 / KINOMEscan: CAMK2D / KINOMEscan: CAMK2G / KINOMEscan: ABL1(F317I)-nonphosphorylated / KINOMEscan: ABL1(F317I)-phosphorylated / KINOMEscan: ABL1(F317L)-nonphosphorylated: unit: % Ctrl; conditions: Compound Concentration 10 µM
T1 construct: purchased KINOMEscan
T1 sequence (Q8IU85 whole entry): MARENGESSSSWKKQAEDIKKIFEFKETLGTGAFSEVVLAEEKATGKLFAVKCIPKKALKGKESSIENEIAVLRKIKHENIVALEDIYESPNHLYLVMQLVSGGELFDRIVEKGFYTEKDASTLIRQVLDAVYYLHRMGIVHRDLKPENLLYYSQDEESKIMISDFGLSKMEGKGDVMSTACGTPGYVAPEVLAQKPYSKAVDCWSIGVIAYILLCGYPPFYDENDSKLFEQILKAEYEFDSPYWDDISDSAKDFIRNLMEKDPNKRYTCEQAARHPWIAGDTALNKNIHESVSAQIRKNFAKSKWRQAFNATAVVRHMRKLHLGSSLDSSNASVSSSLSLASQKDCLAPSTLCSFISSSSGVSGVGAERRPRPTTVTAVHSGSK
Text: (§1) We assessed the selectivity of members of this scaffold using the KINOMEscan methodology across a near comprehensive panel of 442 kinases [[18,27]].

panel of 442 kinases [2] = biological target: T2, panel of 442 kinases (Homo sapiens, UniProt P29323); type: binding; set-up: KINOMEscan: ABL1(F317L)-phosphorylated / KINOMEscan: ABL1(H396P)-nonphosphorylated / KINOMEscan: ABL1(H396P)-phosphorylated / KINOMEscan: ABL1(M351T)-phosphorylated / KINOMEscan: ABL1(T315I)-phosphorylated / KINOMEscan: ABL1-nonphosphorylated / KINOMEscan: ABL1-phosphorylated / KINOMEscan: ACVR2A / KINOMEscan: ACVR2B / KINOMEscan: ADCK3 / KINOMEscan: ADCK4 / KINOMEscan: AKT1 / KINOMEscan: AKT3 / KINOMEscan: ALK / KINOMEscan: ARK5 / KINOMEscan: AURKA / KINOMEscan: AURKC / KINOMEscan: BIKE / KINOMEscan: BMPR1A / KINOMEscan: BMPR1B / KINOMEscan: BMX / KINOMEscan: BRK / KINOMEscan: BRSK1 / KINOMEscan: BRSK2 / KINOMEscan: CAMK1 / KINOMEscan: CAMK1D / KINOMEscan: CAMK1G / KINOMEscan: CAMK2A / KINOMEscan: CAMK2B / KINOMEscan: AAK1 / KINOMEscan: CAMK2D / KINOMEscan: CAMK2G / KINOMEscan: ABL1(F317I)-nonphosphorylated / KINOMEscan: ABL1(F317I)-phosphorylated / KINOMEscan: ABL1(F317L)-nonphosphorylated: unit: % Ctrl; conditions: Compound Concentration 10 µM
T2 construct: purchased KINOMEscan
T2 sequence (P29323 19-1055): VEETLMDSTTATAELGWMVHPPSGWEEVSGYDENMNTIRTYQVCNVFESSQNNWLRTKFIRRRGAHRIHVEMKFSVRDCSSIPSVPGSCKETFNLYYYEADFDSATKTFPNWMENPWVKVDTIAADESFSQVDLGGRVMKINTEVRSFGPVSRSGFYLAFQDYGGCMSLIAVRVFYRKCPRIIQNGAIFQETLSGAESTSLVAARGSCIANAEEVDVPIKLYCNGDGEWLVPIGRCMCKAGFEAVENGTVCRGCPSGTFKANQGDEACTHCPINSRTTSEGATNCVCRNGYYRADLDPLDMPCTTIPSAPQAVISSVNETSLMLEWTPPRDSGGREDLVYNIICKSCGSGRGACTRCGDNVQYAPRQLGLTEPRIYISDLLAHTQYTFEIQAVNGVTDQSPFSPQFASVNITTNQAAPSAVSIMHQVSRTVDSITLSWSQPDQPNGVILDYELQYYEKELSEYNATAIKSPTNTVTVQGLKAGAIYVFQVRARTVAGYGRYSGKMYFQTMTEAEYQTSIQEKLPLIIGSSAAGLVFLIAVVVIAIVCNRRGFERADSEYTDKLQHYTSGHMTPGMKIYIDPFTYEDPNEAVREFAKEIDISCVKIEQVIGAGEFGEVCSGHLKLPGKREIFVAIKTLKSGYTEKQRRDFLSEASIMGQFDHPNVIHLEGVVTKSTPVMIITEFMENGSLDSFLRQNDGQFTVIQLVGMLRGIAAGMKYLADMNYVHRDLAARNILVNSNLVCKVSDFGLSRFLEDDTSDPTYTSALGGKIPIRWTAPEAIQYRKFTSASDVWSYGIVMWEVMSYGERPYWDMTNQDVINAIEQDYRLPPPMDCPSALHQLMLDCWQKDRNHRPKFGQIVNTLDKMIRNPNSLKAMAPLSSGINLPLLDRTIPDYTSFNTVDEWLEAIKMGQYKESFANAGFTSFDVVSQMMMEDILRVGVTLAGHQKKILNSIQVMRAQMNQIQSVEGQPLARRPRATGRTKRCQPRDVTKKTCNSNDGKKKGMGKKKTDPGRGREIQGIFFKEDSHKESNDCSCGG
Text: as §1

| Compound | KINOMEscan: CAMK1D (panel of 442 kinases [1]) | KINOMEscan: EPHB2 (panel of 442 kinases [2]) |
| --- | --- | --- |
| COc1cc(C(=O)N2CCC(N3CCN(C)CC3)CC2)ccc1Nc1ncc2c(n1)N(C)c1ccccc1C(=O)N2C [15 (LRRK2-IN-1)] | 69 | 100 |
| COc1cc(C(=O)N2CCC(N3CCN(C)CC3)CC2)ccc1Nc1ncc2c(n1)N(C1CCCC1)c1ccccc1C(=O)N2C [Compound 25, 11-cyclopentyl-2-((2-methoxy-4-(4-(4-methylpiperazin-1-yl)piperidine-1-carbonyl)phenyl)amino)-5-methyl-5H-benzo[e]pyrimido[5,4-b][1,4]diazepin-6(11H)-one] | 77 | 86 |
| CCOc1cc(C(=O)N2CCC(N3CCN(C)CC3)CC2)ccc1Nc1ncc2c(n1)N(C1CCCC1)c1ccccc1C(=O)N2C [Compound 26] | 61 | 100 |
